Laboratory results published in PMC6722823, “Peptide Antagonists for P-selectin Discriminate between Sulfatide-Dependent Platelet Aggregation and PSGL-1-Mediated Cell Adhesion” (Journal of Clinical Medicine, 2019).
Positions of bridges follow the written chain, without caps; N, C: chain ends. Residues, ends and D or L forms follow the SMILES beside them. No end group written: not given here.

T1: L-selectin (Homo sapiens, UniProt P14151)
T1 sequence (P14151 39-318 limits assumed): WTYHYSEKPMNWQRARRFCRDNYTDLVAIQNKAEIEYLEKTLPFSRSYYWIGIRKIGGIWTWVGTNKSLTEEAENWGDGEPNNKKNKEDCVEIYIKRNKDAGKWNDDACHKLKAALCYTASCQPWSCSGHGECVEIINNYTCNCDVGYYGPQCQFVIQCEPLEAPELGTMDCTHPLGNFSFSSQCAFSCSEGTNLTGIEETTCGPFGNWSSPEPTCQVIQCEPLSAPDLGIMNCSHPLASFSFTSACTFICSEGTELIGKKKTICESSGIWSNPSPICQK

T2: human P-selectin-IgG (human, UniProt P16109 42-771)
T2 construct: P-selectin, human, fused to IgG (Fc); Captured in the wells through Fc-specific goat anti-human IgG; also called human Fc fusion protein of P-selectin; fusion protein of IgG and P-selectin; source: bought: R&D systems
T2 sequence (looked up): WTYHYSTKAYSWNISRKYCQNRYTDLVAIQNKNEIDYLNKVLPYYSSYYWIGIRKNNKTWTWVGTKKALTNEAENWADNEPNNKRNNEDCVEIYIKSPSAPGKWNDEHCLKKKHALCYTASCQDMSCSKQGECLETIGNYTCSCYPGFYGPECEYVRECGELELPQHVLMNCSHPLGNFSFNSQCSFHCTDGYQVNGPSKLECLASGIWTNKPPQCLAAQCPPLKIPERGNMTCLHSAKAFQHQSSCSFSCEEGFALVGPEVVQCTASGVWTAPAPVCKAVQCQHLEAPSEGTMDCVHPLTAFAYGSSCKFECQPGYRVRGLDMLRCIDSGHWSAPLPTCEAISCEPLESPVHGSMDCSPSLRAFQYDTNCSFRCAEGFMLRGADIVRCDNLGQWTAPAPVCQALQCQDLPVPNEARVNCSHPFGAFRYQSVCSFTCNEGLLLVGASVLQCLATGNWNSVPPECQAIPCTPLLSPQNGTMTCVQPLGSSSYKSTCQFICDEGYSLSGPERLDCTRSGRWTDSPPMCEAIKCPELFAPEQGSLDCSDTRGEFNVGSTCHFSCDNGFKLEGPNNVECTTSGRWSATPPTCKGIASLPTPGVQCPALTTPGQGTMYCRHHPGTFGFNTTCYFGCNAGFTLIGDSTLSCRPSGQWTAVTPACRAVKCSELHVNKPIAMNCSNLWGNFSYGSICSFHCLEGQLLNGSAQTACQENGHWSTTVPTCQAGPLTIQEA


How the values were obtained:
[1] = test system: human platelets; test: Aggregate size after ADP-induced aggregation of human PRP (light microscopy); format: cell-based; details: 100 μM
Experimental: (§1) Human PRP was incubated with peptide antagonists (100 μmol/L, 5 min, 37 °C) or vehicle and stimulated with 10 μmol/L ADP under constant stirring at 1000 rpm (37 °C). Optical aggregation was monitored in a Chrono-Log Lumi-aggregometer (Chrono-Log Corporation, Havertown, PA, USA).
After 15 min, aggregates were fixed in 1 volume 0.5% glutaraldehyde in PBS and applied to microscope slides. Aggregates were dehydrated with methanol and stained with May-Grünwald/Giemsa. The aggregate size was measured by light microscopy equipped with a JAI-CCD camera (Copenhagen, Denmark) coupled to a Matrox frame grabber (Matrox Electronic Systems Ltd., Dorval, Quebec, Canada) using the ‘watershed’ function of the Optimas 6.2 software (Optimas Inc., Seattle, WA, USA). Results were expressed as mean aggregate size (μm^2).

[2] = test system: human platelets; test: ADP-induced platelet aggregation in human platelet-rich plasma (optical aggregometry); format: cell-based; details: 10 μM ADP
Description: Freshly drawn venous blood from healthy volunteers was obtained through the Mini Donor Service, a blood donation facility for research purposes, that is approved by the Medical Ethics Committee of the University Medical Center Utrecht (protocol number 07-125). All donors provided written informed consent, in accordance with the Declaration of Helsinki for blood collection through this service. All participant information is kept confidential, and only Mini Donor Service personnel have access to the information provided. The donors were free of medication for at least two weeks before blood collection. Overnight fasting before blood collection was not necessary. Blood was collected into 0.1 volume 130 mmol/L trisodium citrate and was processed the same day and within 6 h. For aggregation studies, platelet-rich plasma (PRP) was prepared by centrifugation (150 g, 15 min, 20 °C) and adjusted to a final concentration of 2×10^11 platelets/L with platelet-poor plasma prepared from the remaining blood (1100 g, 10 min, 20 °C). […]
as §1

[3] = molecular target: T3, P-selectin (Homo sapiens, UniProt P16109); test: Competition of [3H]-CE-labeled sulfatide liposome binding to P-selectin-coated wells; details: for Change in Sf42 liposome binding to P-selectin: Sf42 liposomes 100 μg/mL; for Change in Sf57 liposome binding to P-selectin: Sf57 liposomes 100 μg/mL; for Change in Sf28 liposome binding to P-selectin: Sf28 liposomes 100 μg/mL; for EC50: Sf28 liposomes (28% sulfatide)
T3 construct: purchased R&D systems (Minneapolis, MN, USA)
Experimental: Liposomes were prepared by sonication as follows. Egg yolk phosphatidylcholine, cholesterol, and sulfatides, all dissolved in chloroform/methanol (1:1, v/v), were mixed at weight ratios of 4:0.8:0 (named Sf0), 4:0.8:1.3 (Sf21), 2.5:0.8:1.3 (Sf28), 1:0.8:1.3 (Sf42), and 0.2:0.8:1.3 mg/mL (Sf57). The Sf numbers indicate the number of sulfatides as a percentage of total lipid weight. A tracer amount of [^3H]-cholesteryl oleate ([^3H]-CE; 1.3 × 10^8 dpm (disintegrations per minute)) was added, and the organic solvent was evaporated by a stream of nitrogen. The resulting lipid layer was vortexed in 1 mL phosphate buffered saline (PBS) and subsequently sonicated for 40 min at 54 °C using a Soniprep 150 (MSE Scientific Instruments, Crawley, UK) at 18 µm amplitude. Particle sizes were determined by photon correlation spectroscopy (Malvern 4700 C System, Malvern Instruments, Malvern, UK) at 25 °C and a 90° angle between laser and detector. […] Liposomes were stored at 4 °C under argon and used for characterization and metabolic studies within 7 days following preparation, during which no physicochemical changes occurred. As the liposomes were equal in size and incorporation of the radioactive label was quantitative, the specific activity of each sulfatide-bearing liposome was calculated as the amount of [^3H]-cholesteryloleate (dpm) divided by the total lipid content (ng).
Fc-specific goat anti-human IgG (10 μg/mL) was coated overnight at 4 °C in a high binding 96-well plate (Costar, Corning, UK) in coating buffer (50 mM NaHCO3, pH 9.6). Then, wells were washed with assay buffer (20 mmol/L HEPES, 150 mmol/L NaCl, 1 mmol/L CaCl2, pH 7.4) and incubated for 1 h at 37 °C with blocking buffer (3% bovine serum albumin (BSA) in assay buffer). After washing, wells were incubated with fusion proteins of IgG and P-, E-, or L-selectin (0.3 μg/mL, 2 h, 37 °C), washed with assay buffer, and subsequently incubated for 2 h at 4 °C with a concentration range of [^3H]-CE-labeled liposomes (0–800 µg lipid per mL assay buffer containing 0.2% BSA). For competition studies, labeled liposomes (1 × 10^5 dpm/well) were incubated in the presence of peptides or antibodies at the indicated concentrations. After removal of unbound liposomes by washing four times with assay buffer, bound liposomes were collected in 2-propanol/butanol/water (50:25:20, by vol.) and counted for radioactivity using a scintillation counter. Since the sulfatide liposomes were equal in size, the recovered amount of [^3H]-CE could be used to calculate the binding capacity of P-selectin for the sulfatide liposomes, as well as the recovered amount of lipid (ng/well) based on the specific activity.

[4] = molecular target: P-selectin binding to HL60 cells (PSGL-1) (Homo sapiens, UniProt P16109); details: displacement of P-selectin binding to HL60 cells; ref Molenaar et al. [28]; cited from earlier work
[5] = molecular target: T3, P-selectin; test: Surface plasmon resonance (Biacore), sulfatide-coated L1 chip, P-selectin; format: binding; details: Fc fusion protein 40 nM
Experimental: (§2) A Biacore 2000 instrument (Biacore AB, Uppsala, Sweden) was used to analyze the interaction between sulfatides and P-, L, and E-selectins, as described. Experiments were performed at room temperature using running buffer (20 mmol/L HEPES, 150 mmol/L NaCl, 1 mmol/L CaCl2, 0.005% Surfactant P20, pH 7.4). Sulfatides were immobilized on L1 sensor chips at 5 μL/min according to the manufacturer’s instructions. Binding kinetics of human fusion proteins IgG and P-, L- and E- selectins to the immobilized sulfatides were determined by injection of the fusion proteins. At the end of each injection, the sensor chips were regenerated with 100 mmol/L NaOH and equilibrated with running buffer. All curves were corrected for non-specific binding by an online baseline subtraction of ligand binding to a control flow channel. Binding kinetics were analyzed using BIAevaluation software (V2.1; Pharmacia Biosensor, Uppsala, Sweden).
Target sequence in this assay (P16109 with tags, fused parts or gaps limits assumed): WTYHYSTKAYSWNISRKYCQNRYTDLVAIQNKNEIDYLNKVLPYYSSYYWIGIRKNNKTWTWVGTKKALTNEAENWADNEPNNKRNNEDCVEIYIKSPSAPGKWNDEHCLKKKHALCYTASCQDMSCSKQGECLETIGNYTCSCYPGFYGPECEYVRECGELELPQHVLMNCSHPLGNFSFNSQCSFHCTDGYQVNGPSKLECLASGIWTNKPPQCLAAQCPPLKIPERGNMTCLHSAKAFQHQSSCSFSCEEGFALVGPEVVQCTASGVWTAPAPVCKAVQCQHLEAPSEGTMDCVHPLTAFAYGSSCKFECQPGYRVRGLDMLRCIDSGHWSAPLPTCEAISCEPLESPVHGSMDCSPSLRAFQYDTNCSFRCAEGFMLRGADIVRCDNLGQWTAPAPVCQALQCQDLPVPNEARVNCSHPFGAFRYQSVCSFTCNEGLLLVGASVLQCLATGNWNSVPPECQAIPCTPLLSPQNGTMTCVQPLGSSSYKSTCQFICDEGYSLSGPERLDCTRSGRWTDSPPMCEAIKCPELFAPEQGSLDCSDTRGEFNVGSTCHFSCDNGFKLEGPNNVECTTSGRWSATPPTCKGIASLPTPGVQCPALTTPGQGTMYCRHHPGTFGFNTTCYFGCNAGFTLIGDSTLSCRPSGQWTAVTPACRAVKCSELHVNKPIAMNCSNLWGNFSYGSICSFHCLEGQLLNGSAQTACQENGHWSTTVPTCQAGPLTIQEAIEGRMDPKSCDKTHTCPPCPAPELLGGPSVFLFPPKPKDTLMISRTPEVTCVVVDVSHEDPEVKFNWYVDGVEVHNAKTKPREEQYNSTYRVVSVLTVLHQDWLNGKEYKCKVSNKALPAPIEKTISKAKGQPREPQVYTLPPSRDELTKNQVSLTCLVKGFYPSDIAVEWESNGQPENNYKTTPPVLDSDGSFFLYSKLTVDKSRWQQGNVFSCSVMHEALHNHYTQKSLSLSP

[6] = molecular target: T4, E-selectin (Homo sapiens, UniProt P16581); test: Surface plasmon resonance (Biacore), sulfatide-coated L1 chip, E-selectin; format: binding; details: Fc fusion protein 40 nM
T4 construct: purchased R&D systems (Minneapolis, MN, USA)
Experimental: as §2

[7] = molecular target: T1, L-selectin; test: Surface plasmon resonance (Biacore), sulfatide-coated L1 chip, L-selectin; format: binding; details: Fc fusion protein 40 nM
Experimental: as §2

[8] = molecular target: T2, human P-selectin-IgG; test: radioligand binding; displacement: P-selectin-IgG (0.3 ug/mL) captured on Fc-specific goat anti-human IgG in 96-well plates; [3H]-cholesteryl oleate-labelled Sf28 sulfatide liposomes (1 x 10^5 dpm/well) with increasing amounts of peptide; 2 h, 4 C; 20 mmol/L HEPES, 150 mmol/L NaCl, 1 mmol/L CaCl2, pH 7.4, 0.2% BSA; details: both partners purified
[9] = molecular target: human P-selectin-IgG (human) (UniProt P16109)

P-selectin binding to HL60 cells (PSGL-1), sequence (P16109 42-830 limits assumed): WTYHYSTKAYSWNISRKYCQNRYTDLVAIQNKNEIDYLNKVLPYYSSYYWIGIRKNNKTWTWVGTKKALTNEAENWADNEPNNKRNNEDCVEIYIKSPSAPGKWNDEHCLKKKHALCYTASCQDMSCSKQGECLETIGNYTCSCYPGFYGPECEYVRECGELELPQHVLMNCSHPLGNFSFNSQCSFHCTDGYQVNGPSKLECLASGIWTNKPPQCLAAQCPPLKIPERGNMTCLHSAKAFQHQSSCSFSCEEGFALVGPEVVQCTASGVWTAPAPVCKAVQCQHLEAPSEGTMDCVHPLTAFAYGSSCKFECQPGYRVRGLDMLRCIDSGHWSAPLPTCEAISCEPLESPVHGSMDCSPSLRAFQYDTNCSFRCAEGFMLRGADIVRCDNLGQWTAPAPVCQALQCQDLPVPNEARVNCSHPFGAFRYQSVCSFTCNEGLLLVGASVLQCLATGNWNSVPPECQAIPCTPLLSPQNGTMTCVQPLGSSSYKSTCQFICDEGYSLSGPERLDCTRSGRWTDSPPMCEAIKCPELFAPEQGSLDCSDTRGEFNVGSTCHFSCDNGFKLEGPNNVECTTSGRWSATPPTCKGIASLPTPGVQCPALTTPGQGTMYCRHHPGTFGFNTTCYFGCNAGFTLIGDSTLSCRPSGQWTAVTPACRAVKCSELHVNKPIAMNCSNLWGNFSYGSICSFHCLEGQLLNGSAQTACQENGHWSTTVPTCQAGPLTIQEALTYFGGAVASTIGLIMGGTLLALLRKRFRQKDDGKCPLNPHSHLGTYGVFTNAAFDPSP
T4 sequence (P16581 with tags, fused parts or gaps limits assumed): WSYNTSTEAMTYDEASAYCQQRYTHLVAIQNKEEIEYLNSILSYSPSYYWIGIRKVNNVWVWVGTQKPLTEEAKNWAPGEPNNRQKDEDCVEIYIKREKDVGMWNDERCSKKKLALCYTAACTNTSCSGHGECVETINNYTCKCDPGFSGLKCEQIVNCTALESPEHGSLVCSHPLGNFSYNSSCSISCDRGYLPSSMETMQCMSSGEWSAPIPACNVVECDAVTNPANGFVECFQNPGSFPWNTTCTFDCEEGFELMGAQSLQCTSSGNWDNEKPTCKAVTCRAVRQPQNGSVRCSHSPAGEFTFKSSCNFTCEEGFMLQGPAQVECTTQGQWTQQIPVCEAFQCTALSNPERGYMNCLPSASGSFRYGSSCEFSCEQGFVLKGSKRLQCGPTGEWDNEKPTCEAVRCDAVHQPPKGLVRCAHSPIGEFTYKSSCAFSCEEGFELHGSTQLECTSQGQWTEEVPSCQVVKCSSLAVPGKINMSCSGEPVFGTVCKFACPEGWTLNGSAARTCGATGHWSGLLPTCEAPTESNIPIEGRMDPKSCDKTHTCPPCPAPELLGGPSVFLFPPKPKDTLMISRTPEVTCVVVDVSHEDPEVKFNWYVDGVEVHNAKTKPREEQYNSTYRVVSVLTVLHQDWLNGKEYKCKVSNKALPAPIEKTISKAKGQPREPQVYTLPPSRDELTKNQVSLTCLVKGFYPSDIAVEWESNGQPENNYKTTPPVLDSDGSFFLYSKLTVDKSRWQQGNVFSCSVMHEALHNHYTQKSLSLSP

Row | Molecule | EC50 [3] [µM] | EC50 [4] [µM] | further results
1 | CC(C)[C@@H]1NC(=O)[C@H](CC(=O)O)NC(=O)[C@H](C(C)C)NC(=O)[C@H](Cc2c[nH]c3ccccc23)NC(=O)[C@H](CCC(=O)O)NC(=O)[C@H](C(C)C)NC(=O)[C@H](CC(=O)O)NC(=O)[C@@H](N)CSSC[C@@H](C(=O)O)NC(=O)[C@H](CO)NC1=O [CDVEWVDVSC] (H-CDVEWVDVSC-OH; disulfide 1-10 (inferred); N-terminus and C-terminus assumed) |  |  | Reduction of mean aggregate size ([1]; ADP-induced aggregation of human PRP): about 90%; Aggregates smaller than 1000 μm^2 ([1]; 15% in the absence of inhibitors): 76%; Initial slope of platelet aggregation ([2]; 100 μM peptide): remained unaltered; Aggregation: percentage inhibition of platelet aggregation ([2]; 100 µM peptide, human PRP, maximum aggregation): 43% (p<0.001); Change in Sf42 liposome binding to P-selectin ([3]; 0.5 µM): did not affect; Change in Sf57 liposome binding to P-selectin ([3]; 0.5 µM): did not affect
2 | O=C(O)CN(CCN(CC(=O)O)CC(=O)O)CC(=O)O [EDTA, reference compound] |  |  | Change in Sf28 liposome binding to P-selectin ([3]; 10 mM): −79%; Change in Sf42 liposome binding to P-selectin ([3]; 10 mM): did not affect; Change in Sf57 liposome binding to P-selectin ([3]; 10 mM): did not affect
3 | AVEWVDVS [AVEWVDVS] | > 1000 | 12 | 
4 | DAEWVDVS [DAEWVDVS] | > 1000 | 19 | 
5 | DVAWVDVS [DVAWVDVS] | > 1000 | 41 | 
6 | DVEAVDVS [DVEAVDVS] | > 1000 | > 1000 | 
7 | DVEWADVS [DVEWADVS] | > 1000 | > 1000 | 
8 | DVEWVAVS [DVEWVAVS] | > 1000 | > 1000 | 
9 | DVEWVDAS [DVEWVDAS] | > 1000 | > 1000 | 
10 | DVEWVDVA [DVEWVDVA] |  | 7 | 
11 | DVEWVDVS [DVEWVDVS] | 12 | 11 | 
12 | cerebroside sulfate, bovine [Sulfatides] |  |  | Binding of P-selectin to sulfatide-coated sensor chip [5]: bind; Binding of E-selectin to sulfatide-coated sensor chip [6]: not E-selectin; Binding of L-selectin to sulfatide-coated sensor chip [7]: bind
13 | rPSGL-1-Ig: recombinant PSGL-1 immunoglobulin fusion, P-selectin inhibitor |  |  | Change in Sf28 liposome binding to P-selectin ([3]; 15 µg/mL): −88%; Change in Sf42 liposome binding to P-selectin ([3]; 15 µg/mL): −97%; Change in Sf57 liposome binding to P-selectin ([3]; 15 µg/mL): −68%
14 | CDVEWVDVSC (also called peptide antagonist; elongated EWVDV peptide) |  |  | EC50 [8]: 0.2 µM
15 | EWVKV |  |  | Percentage inhibition of ADP-induced aggregation of human platelet-rich plasma at 100 uM peptide (sulfatide/P-selectin-dependent aggregation) [9]: 0%
16 | DVEWVDVA (also called elongated EWVDV peptide) |  |  | EC50 [8]: 8 µM
17 | EWVDV |  |  | Percentage inhibition of ADP-induced aggregation of human platelet-rich plasma at 100 uM peptide (sulfatide/P-selectin-dependent aggregation) [9]: 12%

Continued, in another order:

Row | EC50 [3] [µM] | Molecule | EC50 [4] [µM] | further results
18 | > 1000 | EWVDV [EWVDV] | 12 | IC50 ([3]; abstract): > 1000 µM
19 | > 1000 | EWVKV [EWVKV] | > 1000 | 
20 | > 1000 | VEWVDV [VEWVDV] | 13 | 
